{"source": "paper PMC11864979", "about": "“First-in-class ultralong-target-residence-time p38α inhibitors as a mitosis-targeted therapy for colorectal cancer” (Nature Cancer, 2025)", "test_in_all_cases": "selectivity profiling in a panel of 340 wild-type kinases (Reaction Biology Europe)", "type_in_all_cases": "binding", "key": {"340 wild-type kinases [1]": {"biological_target": "T1, 340 wild-type kinases (Homo sapiens, UniProt O15530)", "T1 construct": "purchased Reaction Biology Europe", "T1 sequence (O15530 1-556)": "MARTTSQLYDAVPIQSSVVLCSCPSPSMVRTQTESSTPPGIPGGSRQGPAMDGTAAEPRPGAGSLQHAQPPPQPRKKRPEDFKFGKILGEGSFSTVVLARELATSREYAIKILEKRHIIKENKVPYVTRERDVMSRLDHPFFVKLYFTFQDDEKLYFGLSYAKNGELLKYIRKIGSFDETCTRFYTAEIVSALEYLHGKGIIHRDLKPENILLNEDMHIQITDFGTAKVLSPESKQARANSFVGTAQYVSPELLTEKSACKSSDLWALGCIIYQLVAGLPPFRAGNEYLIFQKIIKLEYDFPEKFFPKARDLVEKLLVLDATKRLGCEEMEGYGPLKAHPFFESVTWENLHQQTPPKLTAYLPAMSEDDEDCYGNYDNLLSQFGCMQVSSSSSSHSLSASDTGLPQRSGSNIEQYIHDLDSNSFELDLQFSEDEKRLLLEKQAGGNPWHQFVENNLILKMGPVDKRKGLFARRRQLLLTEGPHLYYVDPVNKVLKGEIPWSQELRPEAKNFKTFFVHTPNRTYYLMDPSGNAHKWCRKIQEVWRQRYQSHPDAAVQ"}, "340 wild-type kinases [2]": {"biological_target": "T2, 340 wild-type kinases (Homo sapiens, UniProt P15056)", "T2 construct": "purchased Reaction Biology Europe", "T2 sequence (P15056 whole entry)": "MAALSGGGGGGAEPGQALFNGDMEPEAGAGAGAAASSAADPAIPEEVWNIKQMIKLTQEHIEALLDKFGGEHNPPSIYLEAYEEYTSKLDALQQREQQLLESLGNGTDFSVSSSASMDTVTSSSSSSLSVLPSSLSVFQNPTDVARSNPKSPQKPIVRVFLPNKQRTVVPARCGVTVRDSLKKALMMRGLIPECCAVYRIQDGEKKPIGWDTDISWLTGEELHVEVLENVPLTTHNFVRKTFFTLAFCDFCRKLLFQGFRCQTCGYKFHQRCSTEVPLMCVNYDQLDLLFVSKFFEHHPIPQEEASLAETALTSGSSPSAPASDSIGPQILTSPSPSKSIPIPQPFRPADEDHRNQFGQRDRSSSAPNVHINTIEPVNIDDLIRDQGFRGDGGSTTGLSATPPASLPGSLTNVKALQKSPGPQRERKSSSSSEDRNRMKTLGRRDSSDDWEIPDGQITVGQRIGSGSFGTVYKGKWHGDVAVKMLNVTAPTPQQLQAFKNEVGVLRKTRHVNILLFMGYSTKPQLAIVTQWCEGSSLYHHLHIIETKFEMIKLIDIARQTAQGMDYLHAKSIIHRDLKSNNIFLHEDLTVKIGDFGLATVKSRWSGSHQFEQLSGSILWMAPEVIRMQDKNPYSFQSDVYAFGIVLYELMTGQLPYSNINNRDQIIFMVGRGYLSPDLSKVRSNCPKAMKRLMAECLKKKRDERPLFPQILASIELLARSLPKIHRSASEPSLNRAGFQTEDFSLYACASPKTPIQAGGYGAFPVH"}, "340 wild-type kinases [3]": {"biological_target": "T3, 340 wild-type kinases (Homo sapiens, UniProt Q02763)", "T3 construct": "purchased Reaction Biology Europe", "T3 sequence (Q02763 23-1124)": "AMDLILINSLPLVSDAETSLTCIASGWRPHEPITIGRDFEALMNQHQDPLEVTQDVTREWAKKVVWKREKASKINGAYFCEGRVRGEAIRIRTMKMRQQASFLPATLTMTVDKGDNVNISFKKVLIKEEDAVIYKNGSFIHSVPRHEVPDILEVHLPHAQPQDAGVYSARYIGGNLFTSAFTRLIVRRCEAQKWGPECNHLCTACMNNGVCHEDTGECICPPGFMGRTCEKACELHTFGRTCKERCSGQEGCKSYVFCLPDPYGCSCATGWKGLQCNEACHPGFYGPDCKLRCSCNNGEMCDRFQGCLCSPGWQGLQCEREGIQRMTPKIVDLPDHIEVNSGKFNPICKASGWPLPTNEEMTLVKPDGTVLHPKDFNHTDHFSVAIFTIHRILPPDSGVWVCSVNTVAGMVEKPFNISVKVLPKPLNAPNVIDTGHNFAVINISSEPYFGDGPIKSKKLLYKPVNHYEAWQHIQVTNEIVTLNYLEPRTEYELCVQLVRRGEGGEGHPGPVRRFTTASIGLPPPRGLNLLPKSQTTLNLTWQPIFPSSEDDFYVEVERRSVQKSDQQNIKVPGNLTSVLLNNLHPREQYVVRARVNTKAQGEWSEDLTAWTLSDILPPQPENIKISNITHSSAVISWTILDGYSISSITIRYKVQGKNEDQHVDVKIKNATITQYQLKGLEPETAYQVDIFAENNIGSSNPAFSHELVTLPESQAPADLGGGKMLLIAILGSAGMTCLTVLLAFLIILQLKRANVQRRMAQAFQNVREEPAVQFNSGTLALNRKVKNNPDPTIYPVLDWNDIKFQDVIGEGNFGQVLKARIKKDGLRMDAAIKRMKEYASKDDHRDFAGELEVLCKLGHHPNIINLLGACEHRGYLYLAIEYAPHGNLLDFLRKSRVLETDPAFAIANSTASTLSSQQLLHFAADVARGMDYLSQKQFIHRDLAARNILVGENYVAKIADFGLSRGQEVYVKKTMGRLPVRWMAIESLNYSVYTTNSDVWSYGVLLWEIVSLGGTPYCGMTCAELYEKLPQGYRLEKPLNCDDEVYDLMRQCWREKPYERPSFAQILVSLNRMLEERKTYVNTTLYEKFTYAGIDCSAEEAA"}, "340 wild-type kinases [4]": {"biological_target": "T4, 340 wild-type kinases (Homo sapiens, UniProt Q06187)", "T4 construct": "purchased Reaction Biology Europe", "T4 sequence (Q06187 whole entry)": "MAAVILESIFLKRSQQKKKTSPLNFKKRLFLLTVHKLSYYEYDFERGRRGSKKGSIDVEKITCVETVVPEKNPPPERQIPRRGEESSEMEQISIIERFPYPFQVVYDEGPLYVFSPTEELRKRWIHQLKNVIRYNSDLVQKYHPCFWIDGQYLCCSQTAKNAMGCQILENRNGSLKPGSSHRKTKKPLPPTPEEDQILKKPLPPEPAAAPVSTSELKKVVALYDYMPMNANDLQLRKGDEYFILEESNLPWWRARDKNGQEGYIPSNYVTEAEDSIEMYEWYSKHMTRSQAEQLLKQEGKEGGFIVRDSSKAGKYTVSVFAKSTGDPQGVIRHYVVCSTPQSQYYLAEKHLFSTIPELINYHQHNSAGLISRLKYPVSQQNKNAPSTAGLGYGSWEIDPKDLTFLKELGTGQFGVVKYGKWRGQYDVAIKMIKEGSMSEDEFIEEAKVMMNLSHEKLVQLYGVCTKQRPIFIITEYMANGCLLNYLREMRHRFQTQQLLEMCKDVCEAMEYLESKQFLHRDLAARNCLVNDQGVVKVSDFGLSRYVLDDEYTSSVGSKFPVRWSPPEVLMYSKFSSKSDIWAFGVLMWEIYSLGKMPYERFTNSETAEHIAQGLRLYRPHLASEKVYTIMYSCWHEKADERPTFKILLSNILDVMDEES"}, "340 wild-type kinases [5]": {"biological_target": "T5, 340 wild-type kinases (Homo sapiens, UniProt Q13164)", "T5 construct": "purchased Reaction Biology Europe"}, "340 wild-type kinases [6]": {"biological_target": "T6, 340 wild-type kinases (Homo sapiens, UniProt Q13882)", "T6 construct": "purchased Reaction Biology Europe"}, "340 wild-type kinases [7]": {"biological_target": "T7, 340 wild-type kinases (Homo sapiens, UniProt Q14680)", "T7 construct": "purchased Reaction Biology Europe", "T7 sequence (Q14680 whole entry)": "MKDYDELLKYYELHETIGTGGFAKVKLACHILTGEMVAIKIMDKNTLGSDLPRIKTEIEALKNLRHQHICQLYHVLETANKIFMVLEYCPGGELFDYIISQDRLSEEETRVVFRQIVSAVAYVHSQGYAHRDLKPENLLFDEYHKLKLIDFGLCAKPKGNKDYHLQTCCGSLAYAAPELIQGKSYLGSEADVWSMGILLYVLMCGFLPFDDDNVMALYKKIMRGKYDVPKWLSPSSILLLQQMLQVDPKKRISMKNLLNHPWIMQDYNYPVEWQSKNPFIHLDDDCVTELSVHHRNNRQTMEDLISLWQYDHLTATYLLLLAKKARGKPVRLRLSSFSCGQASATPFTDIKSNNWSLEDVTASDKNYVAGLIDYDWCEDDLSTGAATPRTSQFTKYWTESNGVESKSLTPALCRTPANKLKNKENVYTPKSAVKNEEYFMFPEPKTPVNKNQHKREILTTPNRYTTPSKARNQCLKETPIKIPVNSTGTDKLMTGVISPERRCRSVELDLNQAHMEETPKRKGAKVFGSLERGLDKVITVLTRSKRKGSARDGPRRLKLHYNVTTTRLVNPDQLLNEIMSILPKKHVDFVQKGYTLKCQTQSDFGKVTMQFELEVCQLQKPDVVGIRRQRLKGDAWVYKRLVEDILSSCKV"}, "340 wild-type kinases [8]": {"biological_target": "T8, 340 wild-type kinases (Homo sapiens, UniProt Q15131)", "T8 construct": "purchased Reaction Biology Europe", "T8 sequence (Q15131 whole entry)": "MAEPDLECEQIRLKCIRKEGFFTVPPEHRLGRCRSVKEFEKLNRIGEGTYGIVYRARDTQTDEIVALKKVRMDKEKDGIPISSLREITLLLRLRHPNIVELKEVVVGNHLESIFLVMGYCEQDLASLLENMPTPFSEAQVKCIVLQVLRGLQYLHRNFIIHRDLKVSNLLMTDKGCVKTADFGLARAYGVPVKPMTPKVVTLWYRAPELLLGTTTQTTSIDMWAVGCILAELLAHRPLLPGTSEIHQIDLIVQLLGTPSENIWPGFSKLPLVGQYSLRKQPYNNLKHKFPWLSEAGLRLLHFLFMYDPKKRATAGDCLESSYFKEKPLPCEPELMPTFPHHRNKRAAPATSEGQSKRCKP"}, "340 wild-type kinases [9]": {"biological_target": "T9, 340 wild-type kinases (Homo sapiens, UniProt Q15831)", "T9 construct": "purchased Reaction Biology Europe", "T9 sequence (Q15831 1-433)": "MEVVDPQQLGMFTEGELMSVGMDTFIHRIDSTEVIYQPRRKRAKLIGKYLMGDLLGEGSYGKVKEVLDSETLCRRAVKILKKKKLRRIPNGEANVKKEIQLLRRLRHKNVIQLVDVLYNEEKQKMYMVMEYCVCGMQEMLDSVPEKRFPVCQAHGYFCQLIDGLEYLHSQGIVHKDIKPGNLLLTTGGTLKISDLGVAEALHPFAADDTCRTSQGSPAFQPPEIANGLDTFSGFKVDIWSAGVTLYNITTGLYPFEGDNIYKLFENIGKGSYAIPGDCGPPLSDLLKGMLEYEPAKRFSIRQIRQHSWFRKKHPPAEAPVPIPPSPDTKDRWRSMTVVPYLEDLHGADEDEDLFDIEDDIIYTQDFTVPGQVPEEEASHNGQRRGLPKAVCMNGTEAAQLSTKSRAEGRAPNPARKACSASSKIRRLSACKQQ"}, "340 wild-type kinases [10]": {"biological_target": "T10, 340 wild-type kinases (Homo sapiens, UniProt Q16288)", "T10 construct": "purchased Reaction Biology Europe", "T10 sequence (Q16288 32-839)": "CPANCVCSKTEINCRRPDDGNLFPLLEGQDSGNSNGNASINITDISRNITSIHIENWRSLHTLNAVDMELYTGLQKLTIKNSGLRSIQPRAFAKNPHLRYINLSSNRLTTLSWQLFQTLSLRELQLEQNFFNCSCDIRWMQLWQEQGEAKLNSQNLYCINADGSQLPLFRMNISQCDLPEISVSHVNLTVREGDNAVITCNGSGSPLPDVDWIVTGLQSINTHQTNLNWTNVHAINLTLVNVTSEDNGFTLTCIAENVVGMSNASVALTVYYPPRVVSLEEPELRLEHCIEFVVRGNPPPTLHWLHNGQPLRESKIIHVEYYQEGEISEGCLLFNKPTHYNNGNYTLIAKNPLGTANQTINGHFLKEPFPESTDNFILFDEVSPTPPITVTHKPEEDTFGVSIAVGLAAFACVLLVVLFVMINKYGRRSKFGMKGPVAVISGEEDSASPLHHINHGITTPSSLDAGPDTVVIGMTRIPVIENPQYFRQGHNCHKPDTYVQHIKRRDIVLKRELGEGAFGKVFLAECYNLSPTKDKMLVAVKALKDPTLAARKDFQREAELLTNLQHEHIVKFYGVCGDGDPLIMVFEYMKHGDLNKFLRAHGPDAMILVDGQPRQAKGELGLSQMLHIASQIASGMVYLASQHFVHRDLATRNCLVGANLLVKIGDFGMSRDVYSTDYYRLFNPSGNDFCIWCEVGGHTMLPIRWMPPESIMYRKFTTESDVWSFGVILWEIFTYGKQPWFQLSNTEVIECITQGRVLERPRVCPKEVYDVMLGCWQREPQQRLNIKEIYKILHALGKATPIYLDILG"}, "340 wild-type kinases [11]": {"biological_target": "T11, 340 wild-type kinases (Homo sapiens, UniProt Q86UE8)", "T11 construct": "purchased Reaction Biology Europe"}, "340 wild-type kinases [12]": {"biological_target": "T12, 340 wild-type kinases (Homo sapiens, UniProt Q9P286)", "T12 construct": "purchased Reaction Biology Europe", "T12 sequence (Q9P286 whole entry)": "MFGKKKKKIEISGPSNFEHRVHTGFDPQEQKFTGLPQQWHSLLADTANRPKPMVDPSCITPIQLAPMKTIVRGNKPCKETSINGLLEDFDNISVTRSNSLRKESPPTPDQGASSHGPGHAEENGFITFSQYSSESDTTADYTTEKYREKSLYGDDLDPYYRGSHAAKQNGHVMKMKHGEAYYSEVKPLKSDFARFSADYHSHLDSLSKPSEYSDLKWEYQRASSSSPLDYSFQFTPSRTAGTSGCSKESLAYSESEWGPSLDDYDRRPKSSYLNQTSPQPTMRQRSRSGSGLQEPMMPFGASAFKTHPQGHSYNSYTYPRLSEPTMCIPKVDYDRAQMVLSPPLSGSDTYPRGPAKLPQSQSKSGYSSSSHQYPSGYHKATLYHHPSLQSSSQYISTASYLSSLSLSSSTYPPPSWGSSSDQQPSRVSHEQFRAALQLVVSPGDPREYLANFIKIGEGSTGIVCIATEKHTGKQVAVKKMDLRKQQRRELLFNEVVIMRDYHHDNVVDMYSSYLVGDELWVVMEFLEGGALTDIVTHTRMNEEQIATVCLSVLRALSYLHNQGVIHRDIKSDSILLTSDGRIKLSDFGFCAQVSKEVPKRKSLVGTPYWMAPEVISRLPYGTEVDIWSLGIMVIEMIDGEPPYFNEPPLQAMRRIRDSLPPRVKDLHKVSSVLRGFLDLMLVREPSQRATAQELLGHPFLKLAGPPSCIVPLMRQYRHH"}}, "note": "Read-outs that look alike come from different tables or passages of the source."}
{"smiles": "CNC(=O)c1ccc2c(c1)C(=O)c1ccc(Nc3ccc(F)c(NC(=O)C4CC4)c3)cc1CC2", "note": "[Compound 2015]", "values": [{"measurement": "remaining activity at 0.2 µM", "setting": "340 wild-type kinases [1]; 0.2 µM 2015, read-out: PDK1 residual activity", "value": 107, "unit": "%"}, {"measurement": "remaining activity at 1 µM", "setting": "340 wild-type kinases [1]; 1 µM 2015, read-out: PDK1 residual activity", "value": 93.7, "unit": "%"}, {"measurement": "remaining activity at 0.2 µM", "setting": "340 wild-type kinases [1]; PDK1, 0.2 µM, read-out: residual activity", "value": 107, "unit": "%"}, {"measurement": "remaining activity at 1 µM", "setting": "340 wild-type kinases [1]; PDK1, 1 µM, read-out: residual activity", "value": 93.7, "unit": "%"}, {"measurement": "remaining activity at 0.2 µM", "setting": "340 wild-type kinases [2]; 0.2 µM 2015, read-out: BRAF residual activity", "value": 93.9, "unit": "%"}, {"measurement": "remaining activity at 1 µM", "setting": "340 wild-type kinases [2]; 1 µM 2015, read-out: BRAF residual activity", "value": 104, "unit": "%"}, {"measurement": "remaining activity at 0.2 µM", "setting": "340 wild-type kinases [2]; BRAF, 0.2 µM, read-out: residual activity", "value": 94, "unit": "%"}, {"measurement": "remaining activity at 1 µM", "setting": "340 wild-type kinases [2]; BRAF, 1 µM, read-out: residual activity", "value": 104, "unit": "%"}, {"measurement": "remaining activity at 0.2 µM", "setting": "340 wild-type kinases [3]; 0.2 µM 2015, read-out: TIE2 residual activity", "value": 120, "unit": "%"}, {"measurement": "remaining activity at 1 µM", "setting": "340 wild-type kinases [3]; 1 µM 2015, read-out: TIE2 residual activity", "value": 90.4, "unit": "%"}, {"measurement": "remaining activity at 0.2 µM", "setting": "340 wild-type kinases [3]; TIE2, 0.2 µM, read-out: residual activity", "value": 120, "unit": "%"}, {"measurement": "remaining activity at 1 µM", "setting": "340 wild-type kinases [3]; TIE2, 1 µM, read-out: residual activity", "value": 90.5, "unit": "%"}, {"measurement": "remaining activity at 0.2 µM", "setting": "340 wild-type kinases [4]; 0.2 µM 2015, read-out: BTK residual activity", "value": 116, "unit": "%"}, {"measurement": "remaining activity at 1 µM", "setting": "340 wild-type kinases [4]; 1 µM 2015, read-out: BTK residual activity", "value": 106, "unit": "%"}, {"measurement": "remaining activity at 0.2 µM", "setting": "340 wild-type kinases [4]; BTK, 0.2 µM, read-out: residual activity", "value": 116, "unit": "%"}, {"measurement": "remaining activity at 1 µM", "setting": "340 wild-type kinases [4]; BTK, 1 µM, read-out: residual activity", "value": 106, "unit": "%"}, {"measurement": "remaining activity at 0.2 µM", "setting": "340 wild-type kinases [5]; 0.2 µM 2015, read-out: ERK5 residual activity", "value": 112, "unit": "%"}, {"measurement": "remaining activity at 1 µM", "setting": "340 wild-type kinases [5]; 1 µM 2015, read-out: ERK5 residual activity", "value": 99, "unit": "%"}, {"measurement": "remaining activity at 0.2 µM", "setting": "340 wild-type kinases [5]; ERK5, 0.2 µM, read-out: residual activity", "value": 112, "unit": "%"}, {"measurement": "remaining activity at 1 µM", "setting": "340 wild-type kinases [5]; ERK5, 1 µM, read-out: residual activity", "value": 99, "unit": "%"}, {"measurement": "remaining activity at 0.2 µM", "setting": "340 wild-type kinases [6]; 0.2 µM 2015, read-out: BRK residual activity", "value": 100, "unit": "%"}, {"measurement": "remaining activity at 1 µM", "setting": "340 wild-type kinases [6]; 1 µM 2015, read-out: BRK residual activity", "value": 108, "unit": "%"}, {"measurement": "remaining activity at 0.2 µM", "setting": "340 wild-type kinases [6]; BRK, 0.2 µM, read-out: residual activity", "value": 100, "unit": "%"}, {"measurement": "remaining activity at 1 µM", "setting": "340 wild-type kinases [6]; BRK, 1 µM, read-out: residual activity", "value": 108, "unit": "%"}, {"measurement": "remaining activity at 0.2 µM", "setting": "340 wild-type kinases [7]; 0.2 µM 2015, read-out: MELK residual activity", "value": 94.5, "unit": "%"}, {"measurement": "remaining activity at 1 µM", "setting": "340 wild-type kinases [7]; 1 µM 2015, read-out: MELK residual activity", "value": 91, "unit": "%"}, {"measurement": "remaining activity at 0.2 µM", "setting": "340 wild-type kinases [7]; MELK, 0.2 µM, read-out: residual activity", "value": 94.5, "unit": "%"}, {"measurement": "remaining activity at 1 µM", "setting": "340 wild-type kinases [7]; MELK, 1 µM, read-out: residual activity", "value": 91, "unit": "%"}, {"measurement": "remaining activity at 0.2 µM", "setting": "340 wild-type kinases [8]; 0.2 µM 2015, read-out: CDK10/CycQ residual activity", "value": 108, "unit": "%"}, {"measurement": "remaining activity at 1 µM", "setting": "340 wild-type kinases [8]; 1 µM 2015, read-out: CDK10/CycQ residual activity", "value": 97.1, "unit": "%"}, {"measurement": "remaining activity at 0.2 µM", "setting": "340 wild-type kinases [8]; CDK10/CycQ, 0.2 µM, read-out: residual activity", "value": 108, "unit": "%"}, {"measurement": "remaining activity at 1 µM", "setting": "340 wild-type kinases [8]; CDK10/CycQ, 1 µM, read-out: residual activity", "value": 97.1, "unit": "%"}, {"measurement": "remaining activity at 0.2 µM", "setting": "340 wild-type kinases [9]; 0.2 µM 2015, read-out: LKB1/MO25a/STRADa residual activity", "value": 115, "unit": "%"}, {"measurement": "remaining activity at 1 µM", "setting": "340 wild-type kinases [9]; 1 µM 2015, read-out: LKB1/MO25a/STRADa residual activity", "value": 91.6, "unit": "%"}, {"measurement": "remaining activity at 0.2 µM", "setting": "340 wild-type kinases [9]; LKB1/MO25a/STRADa, 0.2 µM, read-out: residual activity", "value": 115, "unit": "%"}, {"measurement": "remaining activity at 1 µM", "setting": "340 wild-type kinases [9]; LKB1/MO25a/STRADa, 1 µM, read-out: residual activity", "value": 91.6, "unit": "%"}, {"measurement": "remaining activity at 0.2 µM", "setting": "340 wild-type kinases [10]; 0.2 µM 2015, read-out: TRKC residual activity", "value": 104, "unit": "%"}, {"measurement": "remaining activity at 1 µM", "setting": "340 wild-type kinases [10]; 1 µM 2015, read-out: TRKC residual activity", "value": 94.3, "unit": "%"}, {"measurement": "remaining activity at 0.2 µM", "setting": "340 wild-type kinases [10]; TRKC, 0.2 µM, read-out: residual activity", "value": 104, "unit": "%"}, {"measurement": "remaining activity at 1 µM", "setting": "340 wild-type kinases [10]; TRKC, 1 µM, read-out: residual activity", "value": 94.3, "unit": "%"}, {"measurement": "remaining activity at 0.2 µM", "setting": "340 wild-type kinases [11]; 0.2 µM 2015, read-out: TLK2 residual activity", "value": 147, "unit": "%"}, {"measurement": "remaining activity at 1 µM", "setting": "340 wild-type kinases [11]; 1 µM 2015, read-out: TLK2 residual activity", "value": 124, "unit": "%"}, {"measurement": "remaining activity at 0.2 µM", "setting": "340 wild-type kinases [11]; TLK2, 0.2 µM, read-out: residual activity", "value": 147, "unit": "%"}, {"measurement": "remaining activity at 1 µM", "setting": "340 wild-type kinases [11]; TLK2, 1 µM, read-out: residual activity", "value": 124, "unit": "%"}, {"measurement": "remaining activity at 0.2 µM", "setting": "340 wild-type kinases [12]; 0.2 µM 2015, read-out: PAK7 residual activity", "value": 97.1, "unit": "%"}, {"measurement": "remaining activity at 1 µM", "setting": "340 wild-type kinases [12]; 1 µM 2015, read-out: PAK7 residual activity", "value": 84.3, "unit": "%"}, {"measurement": "remaining activity at 0.2 µM", "setting": "340 wild-type kinases [12]; PAK7, 0.2 µM, read-out: residual activity", "value": 97.1, "unit": "%"}, {"measurement": "remaining activity at 1 µM", "setting": "340 wild-type kinases [12]; PAK7, 1 µM, read-out: residual activity", "value": 84.3, "unit": "%"}]}
